Reference: patent publication US20170022171A1, “2,5-DISUBSTITUTED CYCLOPENTANECARBOXYLIC ACIDS AND THEIR USE” (Bayer Pharma Aktiengesellschaft, priority 2014, published 2017)

Key:
Assay type in all cases: biochemical
[1] = molecular target: T1, human macrophage elastase (HME/hMMP-12) (Homo sapiens, UniProt P39900); assay: In vitro HME inhibition test (standard or high-sensitivity); conditions: in some cases mean values
T1 construct: 0.5 nM HME; purchased R&D Systems 917-MP
How it was run: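 Fluorogenic assay: 0.5 nM autoactivated HME with 5 µM Mca-Pro-Leu-Gly-Leu-Glu-Glu-Ala-Dap(Dnp)-NH2 in HEPES pH 7.4 buffer (NaCl, CaCl2, ZnCl2, EDTA, Brij), 2 h at 37 °C; ex 323/em 393 nm. IC50 from fluorescence versus concentration. High-sensitivity format: ~0.05 nM enzyme, ~16 h incubation.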

MMP-3 = molecular target: T2, MMP-3 (Homo sapiens, UniProt P08254); assay: In vitro MMP-3 inhibition test
T2 construct: purchased R&D Systems 513-MP
T2 sequence (P08254 100-477): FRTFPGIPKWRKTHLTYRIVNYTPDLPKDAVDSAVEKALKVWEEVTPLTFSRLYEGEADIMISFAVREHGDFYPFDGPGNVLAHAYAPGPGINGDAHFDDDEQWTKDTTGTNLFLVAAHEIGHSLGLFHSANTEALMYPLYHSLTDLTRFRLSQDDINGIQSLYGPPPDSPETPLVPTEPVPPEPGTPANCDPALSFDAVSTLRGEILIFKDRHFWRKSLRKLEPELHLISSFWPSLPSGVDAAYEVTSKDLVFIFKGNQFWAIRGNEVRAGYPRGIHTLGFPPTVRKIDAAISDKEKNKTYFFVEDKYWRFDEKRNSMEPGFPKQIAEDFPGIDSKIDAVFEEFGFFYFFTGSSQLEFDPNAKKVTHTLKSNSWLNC
Excerpt: (§1) The MMP-mediated amidolytic cleavage of a suitable peptide substrate leads to an increase in fluorescent light here too. The signal intensity of the fluorescent light is directly proportional to the enzyme activity. The active concentration of a test compound at which half the enzyme is inhibited (50% signal intensity of the fluorescent light) is reported as the IC50 value.
(§2) Recombinant MMP-3 (from R&D Systems, 513-MP) is chemically activated in accordance with the manufacturer's instructions using APMA. 1 μl of the test compound to be analysed (as a solution in DMSO, suitable concentrations, for example, 1 nM to 30 μM) is pipetted into 24 μl of activated enzyme (final concentration, for example, 2 nM) in reaction buffer (50 mM Tris/HCl pH 7.5, 10 mM CaCl2, 150 mM NaCl, 0.05% Brij®-35) in a white 384-hole microtiter plate (MTP). The enzymatic reaction is started by adding the intramolecularly quenched Mca-Arg-Pro-Lys-Pro-Val-Glu-Nval-Trp-Arg-Lys(Dnp)-NH2 substrate (final concentration, for example, 10 μM; R&D Systems, ES-002), so as to result in a total test volume of 50 The course of the MMP-3 reaction is measured by measuring the fluorescence intensity (excitation 320 nm, emission 410 nm) over a suitable period of time (for example over 120 min at a temperature of 32° C.).

MMP-13 = molecular target: T3, MMP-13 (Homo sapiens, UniProt P45452); assay: In vitro MMP-13 inhibition test
T3 construct: purchased R&D Systems 511-MP
Excerpt: as §1
as §2, with “Recombinant MMP-13” for “Recombinant MMP-3”, “Systems, 511-MP)” for “Systems, 513-MP)”, “example, 0.1” for “example, 2”, “quenched Mca-Pro-Leu-Gly-Leu-Dpa(Dnp)-Ala-Arg-NH2” for “quenched Mca-Arg-Pro-Lys-Pro-Val-Glu-Nval-Trp-Arg-Lys(Dnp)-NH2”, “Systems, ES-001),” for “Systems, ES-002),”, “the MMP-13” for “the MMP-3”

MMP-10 = molecular target: T4, MMP-10 (Homo sapiens, UniProt P09238); assay: In vitro MMP-10 inhibition test
T4 construct: purchased R&D Systems 910-MP
T4 sequence (P09238 99-476): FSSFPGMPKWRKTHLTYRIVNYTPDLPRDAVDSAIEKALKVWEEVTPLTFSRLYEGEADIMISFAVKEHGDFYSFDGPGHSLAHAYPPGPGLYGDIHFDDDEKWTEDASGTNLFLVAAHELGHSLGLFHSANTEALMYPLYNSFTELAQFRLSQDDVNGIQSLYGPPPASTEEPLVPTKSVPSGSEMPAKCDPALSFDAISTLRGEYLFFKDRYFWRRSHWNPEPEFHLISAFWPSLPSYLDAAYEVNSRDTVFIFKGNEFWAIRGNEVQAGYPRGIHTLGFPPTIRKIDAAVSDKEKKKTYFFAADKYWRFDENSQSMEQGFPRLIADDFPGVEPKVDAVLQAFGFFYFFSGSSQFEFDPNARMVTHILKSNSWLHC
Excerpt: as §1
Recombinant MMP-10 (from R&D Systems, 910-MP) is chemically activated in accordance with the manufacturer's instructions using APMA. 1 μl of the test compound to be analysed (as a solution in DMSO, suitable concentrations, for example, 1 nM to 30 μM) is pipetted into 24 μl of activated enzyme (final concentration, for example, 2 nM) in reaction buffer (50 mM Tris/HCl pH 7.5, 10 mM CaCl2, 150 mM NaCl, 0.05% Brij®-35) in a white 384-hole microtiter plate (MTP). The enzymatic reaction is started by adding the intramolecularly quenched Mca-Arg-Pro-Lys-Pro-Val-Glu-Nval-Trp-Arg-Lys(Dnp)-NH2 substrate (final concentration, for example, 10 μM; R&D Systems, ES-002), so as to result in a total test volume of 50 μl. The course of the MMP-10 reaction is measured by measuring the fluorescence intensity (excitation 320 nm, emission 410 nm) over a suitable period of time (for example over 120 min at a temperature of 32° C.).

T1 sequence (P39900 106-470): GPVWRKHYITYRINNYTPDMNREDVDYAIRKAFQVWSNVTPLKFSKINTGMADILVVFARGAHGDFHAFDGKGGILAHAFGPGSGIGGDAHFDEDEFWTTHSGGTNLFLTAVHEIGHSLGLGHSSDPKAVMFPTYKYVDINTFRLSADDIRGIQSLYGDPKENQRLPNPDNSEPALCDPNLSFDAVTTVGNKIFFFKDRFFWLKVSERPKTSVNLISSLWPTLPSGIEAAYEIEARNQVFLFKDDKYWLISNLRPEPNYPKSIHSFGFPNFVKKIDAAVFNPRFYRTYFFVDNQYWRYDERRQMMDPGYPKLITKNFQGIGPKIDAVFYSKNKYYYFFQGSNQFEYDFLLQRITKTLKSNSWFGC

Row | Compound | IC50 [1] [nM] | IC50 (MMP-3) [nM] | IC50 (MMP-13) [nM] | IC50 (MMP-10) [nM]
1 | O=C(O)[C@H]1[C@H](Cn2nnc3ccccc3c2=O)CC[C@@H]1C(=O)c1ccc(OCc2ccc(F)cc2)cc1 (racemic) [Example 1, (+/−)-(1RS,2RS,5SR)-2-{4-[(4-Fluorobenzyl)oxy]benzoyl}-5-[(4-oxo-1,2,3-benzotriazin-3(4H)-yl)methyl]cyclopentanecarboxylic acid] | 0.052 | 170 | 11 | 33
2 | O=C(O)[C@H]1[C@H](Cn2nnc3ccccc3c2=O)CC[C@@H]1C(=O)c1ccc(OCc2cccc(Cl)c2)cc1 (racemic) [Example 2, (+/−)-(1RS,2RS,5SR)-2-{4-[(3-Chlorobenzyl)oxy]benzoyl}-5-[(4-oxo-1,2,3-benzotriazin-3(4H)-yl)methyl]cyclopentanecarboxylic acid] | 0.51 | 2100 | 400 | 310
3 | O=C(O)[C@H]1[C@H](Cn2nnc3ccccc3c2=O)CC[C@@H]1C(=O)c1ccc(OCc2ccc(Cl)c(Cl)c2)cc1 (racemic) [Example 3, (+/−)-(1RS,2RS,5SR)-2-{4-[(3,4-Dichlorobenzyl)oxy]benzoyl}-5-[(4-oxo-1,2,3-benzotriazin-3(4H)-yl)methyl]cyclopentanecarboxylic acid] | 0.055 | 1500 | 340 | 430
4 | O=C(O)[C@H]1[C@H](Cn2nnc3ccccc3c2=O)CC[C@@H]1C(=O)c1ccc(OCC2CCCC2)cc1 (racemic) [Example 4, (+/−)-(1RS,2RS,5SR)-2-[4-(Cyclopentylmethoxy)benzoyl]-5-[(4-oxo-1,2,3-benzotriazin-3(4H)-yl)methyl]cyclopentanecarboxylic acid] | 0.049 | 1100 | 58 | 110
5 | O=C(O)[C@H]1[C@H](Cn2nnc3ccccc3c2=O)CC[C@@H]1C(=O)c1ccc(OCCC2CCCCC2)cc1 (racemic) [Example 5, (+/−)-(1RS,2RS,5SR)-2-[4-(2-Cyclohexylethoxy)benzoyl]-5-[(4-oxo-1,2,3-benzotriazin-3(4H)-yl)methyl]cyclopentanecarboxylic acid] | 0.07 | 1500 | 350 | 93
6 | O=C(O)[C@H]1[C@H](Cn2nnc3ccc(C(F)(F)F)cc3c2=O)CC[C@@H]1C(=O)c1ccc(OCc2cccc(C(F)(F)F)c2)cc1 (racemic) [Example 18, (+/−)-(1RS,2SR,5RS)-2-{[4-Oxo-6-(trifluoromethyl)-1,2,3-benzotriazin-3(4H)-yl]methyl}-5-(4-{[3-(trifluoromethyl)benzyl]oxy}benzoyl)cyclopentanecarboxylic acid] | 0.11 | 1000 | 1400 | 200
7 | O=C(O)[C@H]1[C@H](Cn2nnc3ccc(C(F)(F)F)cc3c2=O)CC[C@@H]1C(=O)c1ccc(OCCCc2ccccc2)cc1 (racemic) [Example 39, (+/−)-(1RS,2SR,5RS)-2-{[4-Oxo-6-(trifluoromethyl)-1,2,3-benzotriazin-3(4H)-yl]methyl}-5-[4-(3-phenylpropoxy)benzoyl]cyclopentanecarboxylic acid] | 0.044 | 420 | 1600 | 170
8 | O=C(O)[C@H]1[C@H](Cn2nnc3ccc(C(F)(F)F)cc3c2=O)CC[C@@H]1C(=O)c1ccc(OCC2CCCCC2)cc1 (racemic) [Example 40, (+/−)-(1RS,2RS,5SR)-2-[4-(Cyclohexylmethoxy)benzoyl]-5-{[4-oxo-6-(trifluoromethyl)-1,2,3-benzotriazin-3(4H)-yl]methyl}cyclopentanecarboxylic acid] | 0.048 | 180 | 380 | 21
9 | O=C(O)[C@H]1[C@H](Cn2nnc3ccc(C(F)(F)F)cc3c2=O)CC[C@@H]1C(=O)c1ccc(OCCCC2CCCCC2)cc1 (racemic) [Example 56, (+/−)-(1RS,2RS,5SR)-2-{4-(3-Cyclohexylpropoxy)benzoyl}-5-{[4-oxo-6-(trifluoromethyl)-1,2,3-benzotriazin-3(4H)-yl]methyl}cyclopentanecarboxylic acid] | 0.2 | 2000 | 2400 | 250
10 | Cc1ccc2nnn(C[C@@H]3CC[C@H](C(=O)c4ccc(OCc5ccccc5)cc4)[C@H]3C(=O)O)c(=O)c2c1 (racemic) [Example 91, (+/−)-(1RS,2RS,5SR)-2-[4-(Benzyloxy)benzoyl]-5-[(6-methyl-4-oxo-1,2,3-benzotriazin-3(4H)-yl)methyl]cyclopentanecarboxylic acid] | 0.074 | 190 | 50 | 21

Results, then the compound that gave them:

Row | IC50 [1] [nM] | IC50 (MMP-3) [nM] | IC50 (MMP-13) [nM] | IC50 (MMP-10) [nM] | Compound
11 | 0.014 | 100 | 88 | 16 | O=C(O)[C@H]1[C@H](Cn2nnc3ccc(C(F)(F)F)cc3c2=O)CC[C@@H]1C(=O)c1ccc(OCc2ccccc2)cc1 (racemic) [Example 11, (+/−)-(1RS,2RS,5SR)-2-[4-(Benzyloxy)benzoyl]-5-{[4-oxo-6-(trifluoromethyl)-1,2,3-benzotriazin-3(4H)-yl]methyl}cyclopentanecarboxylic acid]
12 | 0.019 | 28 | 39 | 15 | O=C(O)[C@H]1[C@H](Cn2nnc3ccc(C(F)(F)F)cc3c2=O)CC[C@@H]1C(=O)c1ccc(OCc2ccc(F)cc2)cc1 (racemic) [Example 12, (+/−)-(1RS,2RS,5SR)-2-{4-[(4-Fluorobenzyl)oxy]benzoyl}-5-{[4-oxo-6-(trifluoromethyl)-1,2,3-benzotriazin-3(4H)-yl]methyl}cyclopentanecarboxylic acid]
13 | 0.05 | 220 | 640 | 26 | Cc1cccc(COc2ccc(C(=O)[C@H]3CC[C@@H](Cn4nnc5ccc(C(F)(F)F)cc5c4=O)[C@@H]3C(=O)O)cc2)c1 (racemic) [Example 15, (+/−)-(1RS,2RS,5SR)-2-{4-[(3-Methylbenzyl)oxy]benzoyl}-5-{[4-oxo-6-(trifluoromethyl)-1,2,3-benzotriazin-3(4H)-yl]methyl}cyclopentanecarboxylic acid]
14 | 0.25 | 800 | 2700 | 310 | O=C(O)[C@H]1[C@H](Cn2nnc3ccc(C(F)(F)F)cc3c2=O)CC[C@@H]1C(=O)c1ccc(SCc2ccc(Cl)c(Cl)c2)cc1 (racemic) [Example 79, (+/−)-(1RS,2RS,5SR)-2-{4-[(3,4-Dichlorobenzyl)sulphanyl]benzoyl}-5-{[4-oxo-6-(trifluoromethyl)-1,2,3-benzotriazin-3(4H)-yl]methyl}cyclopentanecarboxylic acid]
15 | 0.023 | 96 | 230 | 22 | CCCCCSc1ccc(C(=O)[C@H]2CC[C@@H](Cn3nnc4ccc(C(F)(F)F)cc4c3=O)[C@@H]2C(=O)O)cc1 (racemic) [Example 88, (+/−)-(1RS,2SR,5RS)-2-{[4-Oxo-6-(trifluoromethyl)-1,2,3-benzotriazin-3(4H)-yl]methyl}-5-[4-(pentylsulphanyl)benzoyl]cyclopentanecarboxylic acid]
